Reference: PubChem BioAssay (NCI)
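GI50 = concentration required for 50% inhibition of growth. Definition used: TGI = concentration required for complete inhibition of growth.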

How the values were obtained:
Assay in all cases: NCI-60 cell line screen, 384-well format
U251 glioblastoma = system: U251 glioblastoma
SK-OV-3 ovarian = system: SK-OV-3 ovarian
LOX IMVI melanoma = system: LOX IMVI melanoma
SN12C renal = system: SN12C renal
MOLT-4 leukemia = system: MOLT-4 leukemia
SR leukemia = system: SR leukemia
SW-620 colon = system: SW-620 colon
T-47D breast = system: T-47D breast
NCI-H322M lung = system: NCI-H322M lung
SK-MEL-28 melanoma = system: SK-MEL-28 melanoma
MDA-MB-435 melanoma = system: MDA-MB-435 melanoma
NCI-H226 lung = system: NCI-H226 lung
MDA-MB-468 breast = system: MDA-MB-468 breast
IGROV1 ovarian = system: IGROV1 ovarian
UO-31 renal = system: UO-31 renal
OVCAR-3 ovarian = system: OVCAR-3 ovarian
NCI-H522 lung = system: NCI-H522 lung
RXF 393 renal = system: RXF 393 renal
MDA-MB-231 breast = system: MDA-MB-231 breast
SF-268 CNS = system: SF-268 CNS
MCF7 breast = system: MCF7 breast
DU-145 prostate = system: DU-145 prostate
NCI-H460 NSCLC = system: NCI-H460 NSCLC
HCT-116 colon = system: HCT-116 colon
K-562 leukemia = system: K-562 leukemia
HOP-62 NSCLC = system: HOP-62 NSCLC
ACHN renal = system: ACHN renal
UACC-257 melanoma = system: UACC-257 melanoma
COLO 205 colon = system: COLO 205 colon
KM12 colon = system: KM12 colon
PC-3 prostate = system: PC-3 prostate
TK-10 renal = system: TK-10 renal
HL-60(TB) leukemia = system: HL-60(TB) leukemia
HS 578T breast = system: HS 578T breast
NCI-H23 lung = system: NCI-H23 lung
HT29 colon = system: HT29 colon
SK-MEL-5 melanoma = system: SK-MEL-5 melanoma
EKVX NSCLC = system: EKVX NSCLC
A549 NSCLC = system: A549 NSCLC
CCRF-CEM leukemia = system: CCRF-CEM leukemia
CAKI-1 renal = system: CAKI-1 renal
MALME-3M melanoma = system: MALME-3M melanoma
SF-539 CNS = system: SF-539 CNS
M14 melanoma = system: M14 melanoma
786-0 renal = system: 786-0 renal
SNB-75 CNS = system: SNB-75 CNS
OVCAR-5 ovarian = system: OVCAR-5 ovarian
A498 renal = system: A498 renal
OVCAR-4 ovarian = system: OVCAR-4 ovarian
HCC-2998 colon = system: HCC-2998 colon
BT-549 breast = system: BT-549 breast
HOP-92 NSCLC = system: HOP-92 NSCLC
OVCAR-8 ovarian = system: OVCAR-8 ovarian
NCI/ADR-RES ovarian = system: NCI/ADR-RES ovarian
SF-295 CNS = system: SF-295 CNS
SNB-19 CNS = system: SNB-19 CNS
HCT-15 colon = system: HCT-15 colon
RPMI-8226 leukemia = system: RPMI-8226 leukemia
UACC-62 melanoma = system: UACC-62 melanoma
SK-MEL-2 melanoma = system: SK-MEL-2 melanoma

Nc1ccccc1NC(=O)c1ccc(CNC(=O)OCc2cccnc2)cc1
GI50 (U251 glioblastoma): 0.607 µM | TGI (U251 glioblastoma): 1.91 µM | GI50 (SK-OV-3 ovarian): 1.5 µM | TGI (SK-OV-3 ovarian): 5.1 µM | GI50 (LOX IMVI melanoma): 0.357 µM | TGI (LOX IMVI melanoma): 1.05 µM | GI50 (SN12C renal): 1.6 µM | TGI (SN12C renal): 3.28 µM | GI50 (MOLT-4 leukemia): 0.164 µM | TGI (MOLT-4 leukemia): 0.303 µM | GI50 (SR leukemia): 0.031 µM | TGI (SR leukemia): 0.105 µM | GI50 (SW-620 colon): 0.521 µM | TGI (SW-620 colon): 2.16 µM | GI50 (T-47D breast): 0.487 µM | TGI (T-47D breast): 1.22 µM | GI50 (NCI-H322M lung): 1.55 µM | TGI (NCI-H322M lung): 6.5 µM | GI50 (SK-MEL-28 melanoma): 0.234 µM | TGI (SK-MEL-28 melanoma): 0.493 µM | GI50 (MDA-MB-435 melanoma): 0.652 µM | TGI (MDA-MB-435 melanoma): 2.4 µM | GI50 (NCI-H226 lung): 1.07 µM | TGI (NCI-H226 lung): 4.88 µM | GI50 (MDA-MB-468 breast): 0.244 µM | TGI (MDA-MB-468 breast): 0.713 µM | GI50 (IGROV1 ovarian): 0.363 µM | TGI (IGROV1 ovarian): 1.72 µM | GI50 (UO-31 renal): 1.66 µM | TGI (UO-31 renal): 13.1 µM | GI50 (OVCAR-3 ovarian): 0.936 µM | TGI (OVCAR-3 ovarian): 3.13 µM | GI50 (NCI-H522 lung): 0.673 µM | TGI (NCI-H522 lung): 2.68 µM | GI50 (RXF 393 renal): 0.239 µM | TGI (RXF 393 renal): 0.918 µM | GI50 (MDA-MB-231 breast): 0.511 µM | TGI (MDA-MB-231 breast): 2.86 µM | GI50 (SF-268 CNS): 0.22 µM | TGI (SF-268 CNS): 0.719 µM | GI50 (MCF7 breast): 0.404 µM | TGI (MCF7 breast): 1.94 µM | GI50 (DU-145 prostate): 0.338 µM | TGI (DU-145 prostate): 6.41 µM | GI50 (NCI-H460 NSCLC): 0.352 µM | TGI (NCI-H460 NSCLC): 7.66 µM | GI50 (HCT-116 colon): 0.295 µM | TGI (HCT-116 colon): 1.19 µM | GI50 (K-562 leukemia): 0.185 µM | TGI (K-562 leukemia): 1.16 µM | GI50 (HOP-62 NSCLC): 0.785 µM | TGI (HOP-62 NSCLC): 3.62 µM | GI50 (ACHN renal): 0.6 µM | TGI (ACHN renal): 2.62 µM | GI50 (UACC-257 melanoma): 0.375 µM | TGI (UACC-257 melanoma): 1.38 µM | GI50 (COLO 205 colon): 0.775 µM | TGI (COLO 205 colon): 2.42 µM | GI50 (KM12 colon): 2.24 µM | TGI (KM12 colon): 19.9 µM | GI50 (PC-3 prostate): 1.04 µM | TGI (PC-3 prostate): 16.4 µM | GI50 (TK-10 renal): 0.441 µM | TGI (TK-10 renal): 3.82 µM | GI50 (HL-60(TB) leukemia): 0.206 µM | TGI (HL-60(TB) leukemia): 0.35 µM | GI50 (HS 578T breast): 0.271 µM | TGI (HS 578T breast): 1.07 µM | GI50 (NCI-H23 lung): 0.79 µM | TGI (NCI-H23 lung): 4.45 µM | GI50 (HT29 colon): 0.563 µM | TGI (HT29 colon): 2.56 µM | GI50 (SK-MEL-5 melanoma): 0.243 µM | TGI (SK-MEL-5 melanoma): 0.457 µM | GI50 (EKVX NSCLC): 2.86 µM | TGI (EKVX NSCLC): 90.5 µM | GI50 (A549 NSCLC): 1.91 µM | TGI (A549 NSCLC): 14.7 µM | GI50 (CCRF-CEM leukemia): 0.19 µM | TGI (CCRF-CEM leukemia): 0.368 µM | GI50 (CAKI-1 renal): 0.918 µM | TGI (CAKI-1 renal): 2.95 µM | GI50 (MALME-3M melanoma): 0.109 µM | TGI (MALME-3M melanoma): 0.255 µM | GI50 (SF-539 CNS): 1.63 µM | TGI (SF-539 CNS): 14.8 µM | GI50 (M14 melanoma): 0.658 µM | TGI (M14 melanoma): 5.66 µM | GI50 ([…]-0 renal): 2.1 µM | TGI (786-0 renal): 14.9 µM | GI50 (SNB-75 CNS): 1.13 µM | TGI (SNB-75 CNS): 13.7 µM | GI50 (OVCAR-5 ovarian): 0.727 µM | TGI (OVCAR-5 ovarian): 5 µM | GI50 (A498 renal): 0.399 µM | TGI (A498 renal): 1.86 µM | GI50 (OVCAR-4 ovarian): 1.33 µM | TGI (OVCAR-4 ovarian): 3.63 µM | GI50 (HCC-2998 colon): 0.558 µM | TGI (HCC-2998 colon): 1.94 µM | GI50 (BT-549 breast): 0.467 µM | TGI (BT-549 breast): 3.32 µM | GI50 (HOP-92 NSCLC): 0.256 µM | TGI (HOP-92 NSCLC): 0.92 µM | GI50 (OVCAR-8 ovarian): 0.368 µM | TGI (OVCAR-8 ovarian): 2.09 µM | GI50 (NCI/ADR-RES ovarian): 1.46 µM | TGI (NCI/ADR-RES ovarian): 4.02 µM | GI50 (SF-295 CNS): 0.878 µM | TGI (SF-295 CNS): 2.11 µM | GI50 (SNB-19 CNS): 1.78 µM | TGI (SNB-19 CNS): 6.06 µM | GI50 (HCT-15 colon): 1.44 µM | TGI (HCT-15 colon): 9.09 µM | GI50 (RPMI-8226 leukemia): 0.0205 µM | TGI (RPMI-8226 leukemia): 0.0453 µM

O=C1CCc2c(Oc3ccc4c(c3)[C@H]3[C@@H](O4)[C@@H]3c3nc4ccc(C(F)(F)F)cc4[nH]3)ccnc2N1
GI50 (U251 glioblastoma): 3.39 µM | TGI (U251 glioblastoma): > 100 µM | GI50 (LOX IMVI melanoma): 0.113 µM | TGI (LOX IMVI melanoma): 0.256 µM | GI50 (SN12C renal): 2.08 µM | TGI (SN12C renal): > 100 µM | GI50 (MOLT-4 leukemia): 1.14 µM | TGI (MOLT-4 leukemia): 2.38 µM | GI50 (T-47D breast): 1.69 µM | TGI (T-47D breast): 6.94 µM | GI50 (MDA-MB-435 melanoma): 0.0302 µM | TGI (MDA-MB-435 melanoma): 0.169 µM | GI50 (MDA-MB-468 breast): 1.06 µM | TGI (MDA-MB-468 breast): 3.33 µM | GI50 (IGROV1 ovarian): 0.789 µM | TGI (IGROV1 ovarian): 7.13 µM | GI50 (OVCAR-3 ovarian): 3.57 µM | TGI (OVCAR-3 ovarian): > 100 µM | GI50 (NCI-H522 lung): 0.154 µM | TGI (NCI-H522 lung): 0.292 µM | GI50 (RXF 393 renal): 0.188 µM | TGI (RXF 393 renal): 0.331 µM | GI50 (MCF7 breast): 0.294 µM | TGI (MCF7 breast): 1.17 µM | GI50 (DU-145 prostate): 2.94 µM | TGI (DU-145 prostate): > 100 µM | GI50 (NCI-H460 NSCLC): 1.67 µM | TGI (NCI-H460 NSCLC): > 100 µM | GI50 (HCT-116 colon): 0.494 µM | TGI (HCT-116 colon): 3.58 µM | GI50 (K-562 leukemia): 0.0201 µM | TGI (K-562 leukemia): 0.05 µM | GI50 (ACHN renal): 0.241 µM | TGI (ACHN renal): 0.592 µM | GI50 (UACC-257 melanoma): 0.0436 µM | TGI (UACC-257 melanoma): 0.347 µM | GI50 (COLO 205 colon): 0.018 µM | TGI (COLO 205 colon): 0.348 µM | GI50 (TK-10 renal): 1.83 µM | TGI (TK-10 renal): 8.27 µM | GI50 (HL-60(TB) leukemia): 0.0857 µM | TGI (HL-60(TB) leukemia): 0.21 µM | GI50 (HS 578T breast): 1.6 µM | TGI (HS 578T breast): 7.13 µM | GI50 (NCI-H23 lung): 0.169 µM | TGI (NCI-H23 lung): 0.454 µM | GI50 (HT29 colon): 0.206 µM | TGI (HT29 colon): > 100 µM | GI50 (SK-MEL-5 melanoma): 0.0549 µM | TGI (SK-MEL-5 melanoma): 1.48 µM | GI50 (EKVX NSCLC): 1.64 µM | TGI (EKVX NSCLC): 8.38 µM | GI50 (CCRF-CEM leukemia): 1.2 µM | TGI (CCRF-CEM leukemia): 3.05 µM | GI50 (CAKI-1 renal): 1.26 µM | TGI (CAKI-1 renal): > 100 µM | TGI (MALME-3M melanoma): 0.0322 µM | GI50 (M14 melanoma): 0.0134 µM | TGI (M14 melanoma): 0.119 µM | GI50 (UACC-62 melanoma): 0.0173 µM | TGI (UACC-62 melanoma): 0.119 µM | GI50 (SK-MEL-2 melanoma): 0.258 µM | TGI (SK-MEL-2 melanoma): 1.21 µM | GI50 ([…]-0 renal): 3.17 µM | TGI (786-0 renal): > 100 µM | GI50 (SNB-75 CNS): 4.41 µM | TGI (SNB-75 CNS): > 100 µM | GI50 (OVCAR-5 ovarian): 0.793 µM | TGI (OVCAR-5 ovarian): > 100 µM | GI50 (HCC-2998 colon): 1.2 µM | TGI (HCC-2998 colon): 5.98 µM | GI50 (HOP-92 NSCLC): 1.65 µM | TGI (HOP-92 NSCLC): 3.91 µM | GI50 (SNB-19 CNS): 4.79 µM | TGI (SNB-19 CNS): > 100 µM | GI50 (HCT-15 colon): 2.42 µM | TGI (HCT-15 colon): > 100 µM | GI50 (RPMI-8226 leukemia): 0.166 µM | TGI (RPMI-8226 leukemia): 0.304 µM
